Measured values taken from PMC11584639 (Nature Communications, 2024).

Molecular target: Bruton's tyrosine kinase (BTK) (Mus musculus, UniProt P35991)
Format: cell-based

Sequence of Bruton's tyrosine kinase (BTK) (P35991 2-659): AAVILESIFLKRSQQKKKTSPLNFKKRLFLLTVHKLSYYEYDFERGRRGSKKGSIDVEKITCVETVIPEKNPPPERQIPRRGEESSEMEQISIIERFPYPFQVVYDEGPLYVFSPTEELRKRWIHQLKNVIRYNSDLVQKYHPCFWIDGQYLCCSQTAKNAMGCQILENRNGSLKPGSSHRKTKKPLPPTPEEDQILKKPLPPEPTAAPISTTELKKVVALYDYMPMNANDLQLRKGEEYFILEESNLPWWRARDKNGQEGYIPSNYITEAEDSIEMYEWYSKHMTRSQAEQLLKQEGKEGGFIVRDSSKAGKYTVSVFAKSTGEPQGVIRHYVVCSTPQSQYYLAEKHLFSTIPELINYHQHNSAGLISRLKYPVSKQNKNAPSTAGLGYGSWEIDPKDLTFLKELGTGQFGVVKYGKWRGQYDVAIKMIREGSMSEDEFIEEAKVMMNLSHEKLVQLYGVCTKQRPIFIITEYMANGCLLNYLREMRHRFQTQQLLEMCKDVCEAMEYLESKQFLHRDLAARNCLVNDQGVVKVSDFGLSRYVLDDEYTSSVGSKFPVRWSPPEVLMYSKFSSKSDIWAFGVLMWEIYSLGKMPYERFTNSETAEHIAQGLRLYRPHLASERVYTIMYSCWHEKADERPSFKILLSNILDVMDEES

For `C=CC(=O)N1CCC[C@@H](n2c(=O)n(-c3ccc(Oc4ccccc4)cc3)c3c(N)nccc32)C1` [tolebrutinib], the “pBTK-to-BTK ratio by Western blot in primary mouse microglia with or without com” value was “This stimulus increased BTK phosphorylation, which was blocked by tolebrutinib”.
